Test results from US7960376B2, “Benzo-fused heterocycles” (priority 2007, dated 2011).

Assays:
Format in all cases: cell-based
[1] = molecular target: T1, rat CB2 receptor (rCB2) (Rattus norvegicus, UniProt Q9QZN9); assay: cell-based; conditions: intracellular cAMP, CHO-K1 cells, NKH-477 prestimulated, + agonist, − inverse agonist
T1 sequence (Q9QZN9 1-360): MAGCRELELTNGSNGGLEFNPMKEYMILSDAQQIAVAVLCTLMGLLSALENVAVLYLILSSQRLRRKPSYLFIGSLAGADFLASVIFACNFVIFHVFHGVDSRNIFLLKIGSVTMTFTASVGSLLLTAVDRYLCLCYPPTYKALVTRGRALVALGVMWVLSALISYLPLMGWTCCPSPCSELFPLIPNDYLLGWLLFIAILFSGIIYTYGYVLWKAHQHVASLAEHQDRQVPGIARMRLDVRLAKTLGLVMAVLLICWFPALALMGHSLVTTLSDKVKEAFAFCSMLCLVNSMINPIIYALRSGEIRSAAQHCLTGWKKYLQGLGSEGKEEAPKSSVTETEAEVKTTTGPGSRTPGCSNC

[2] = molecular target: human CB1 receptor (hCB1) (Homo sapiens, UniProt P21554); assay: cAMP assay (LANCE TR-FRET) in CHO-K1 cells expressing hCB1; conditions: intracellular cAMP, NKH-477 prestimulated, + agonist, − inverse agonist
Chain of human CB1 receptor (hCB1) (P21554 whole entry): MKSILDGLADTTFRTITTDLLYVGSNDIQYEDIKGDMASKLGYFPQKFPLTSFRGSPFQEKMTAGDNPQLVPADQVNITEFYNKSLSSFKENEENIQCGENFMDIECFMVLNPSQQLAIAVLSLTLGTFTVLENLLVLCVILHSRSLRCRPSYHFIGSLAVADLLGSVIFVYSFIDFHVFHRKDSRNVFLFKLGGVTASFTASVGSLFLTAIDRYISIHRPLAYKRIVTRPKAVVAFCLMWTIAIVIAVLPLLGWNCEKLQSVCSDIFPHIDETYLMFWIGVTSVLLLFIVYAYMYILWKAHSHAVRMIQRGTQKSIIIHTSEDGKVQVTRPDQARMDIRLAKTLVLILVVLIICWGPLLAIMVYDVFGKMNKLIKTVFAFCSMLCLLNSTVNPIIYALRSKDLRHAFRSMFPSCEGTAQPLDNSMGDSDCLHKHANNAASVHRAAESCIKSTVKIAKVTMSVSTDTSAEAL

[3] = molecular target: human CB2 receptor (hCB2) (Homo sapiens, UniProt P34972); assay: cell-based; conditions: intracellular cAMP, CHO-K1 cells, NKH-477 prestimulated, + agonist, − inverse agonist
Chain of human CB2 receptor (hCB2) (P34972 whole entry): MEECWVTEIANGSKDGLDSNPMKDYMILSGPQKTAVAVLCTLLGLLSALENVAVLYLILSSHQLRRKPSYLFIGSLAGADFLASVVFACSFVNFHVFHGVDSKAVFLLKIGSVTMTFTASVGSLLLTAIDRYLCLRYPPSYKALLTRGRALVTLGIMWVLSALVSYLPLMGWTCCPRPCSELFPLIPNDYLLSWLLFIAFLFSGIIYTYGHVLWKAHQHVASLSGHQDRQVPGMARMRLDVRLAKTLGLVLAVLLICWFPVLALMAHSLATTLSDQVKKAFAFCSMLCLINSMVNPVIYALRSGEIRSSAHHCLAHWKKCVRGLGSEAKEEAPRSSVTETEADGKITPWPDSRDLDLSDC

Row | SMILES | rCB2 EC50 range [1] | hCB1 EC50 range [2] | hCB2 EC50 range [3] | EC50 ([1]; read-out: rCB2 EC50 range) [µM] | EC50 ([2]; read-out: hCB1 EC50 range) [µM] | EC50 ([3]; read-out: hCB2 EC50 range) [µM]
1 | O=C(NC1CCCC1)c1ccc2c(c1)N(C(=O)c1ccccc1)CCS2 [Example 14, 4-benzoyl-N-cyclopentyl-3,4-dihydro-2H-benzo[b][1,4]thiazine-6-carboxamide] | −D | −E | −E | – | – | –
2 | O=C(NC12CC3CC(CC(C3)C1)C2)c1ccc2c(c1)N(C(=O)c1ccccc1)CCS2 [Example 21, 4-benzoyl-N-(1-adamantyl)-3,4-dihydro-2H-benzo[b][1,4]thiazine-6-carboxamide] | −D | −E | −E | – | – | –
3 | O=C(NC12CC3CC(CC(C3)C1)C2)c1ccc2c(c1)N(C(=O)c1ccc(F)cc1)CCS2 [Example 22] | −D | −E | −E | – | – | –
4 | Cc1ccc(C(=O)N2CCSc3ccc(C(=O)NC45CC6CC(CC(C6)C4)C5)cc32)cc1 [Example 23, N-(1-adamantyl)-4-(4-methylbenzoyl)-3,4-dihydro-2H-benzo[b][1,4]thiazine-6-carboxamide] | −D | −E | −E | – | – | –
5 | O=C(NC12CC3CC(CC(C3)C1)C2)c1ccc2c(c1)N(C(=O)c1ccc(Cl)cc1)CCS2 [Example 24, N-(1-adamantyl)-4-(4-chlorobenzoyl)-3,4-dihydro-2H-benzo[b][1,4]thiazine-6-carboxamide] | −D | −E | −E | – | – | –
6 | COc1ccc(C(=O)N2CCSc3ccc(C(=O)NC45CC6CC(CC(C6)C4)C5)cc32)cc1 [Example 25, N-(1-adamantyl)-4-(4-methoxybenzoyl)-3,4-dihydro-2H-benzo[b][1,4]thiazine-6-carboxamide] | −D | −E | −E | – | – | –
7 | CC(C)C(=O)N1CCSc2ccc(C(=O)NC34CC5CC(CC(C5)C3)C4)cc21 [Example 40, N-(1-adamantyl)-4-isobutyryl-3,4-dihydro-2H-benzo[b][1,4]thiazine-6-carboxamide] | −D | −E | +D | – | – | –
8 | O=C(c1ccc2c(c1)N(S(=O)(=O)c1ccc(F)cc1)CCS2)N1CCOCC1 [Example 42, (4-(4-fluorophenylsulfonyl)-3,4-dihydro-2H-benzo[b][1,4]thiazin-6-yl)(morpholino)methanone] | +C | +E | +D | – | – | –
9 | CC(C)CNC(=O)c1ccc2c(c1)N(S(=O)(=O)c1ccc(F)cc1)CCS2 [Example 43, 4-(4-fluorophenylsulfonyl)-N-isobutyl-3,4-dihydro-2H-benzo[b][1,4]thiazine-6-carboxamide] | +A | +D | +B | – | – | –
10 | CC(C)(C)NC(=O)c1ccc2c(c1)N(S(=O)(=O)c1ccc(F)cc1)CCS2 [Example 47, N-tert-butyl-4-(4-fluorophenylsulfonyl)-3,4-dihydro-2H-benzo[b][1,4]thiazine-6-carboxamide] | +A | +E | +B | – | – | –
11 | COCCCNC(=O)c1ccc2c(c1)N(S(=O)(=O)c1ccc(F)cc1)CCS2 [Example 49, 4-(4-fluorophenylsulfonyl)-N-(3-methoxypropyl)-3,4-dihydro-2H-benzo[b][1,4]thiazine-6-carboxamide] | +A | +E | +C | – | – | –
12 | CC(C)CNC(=O)c1ccc2c(c1)N(S(=O)(=O)c1ccc(Cl)cc1)CCO2 [Example 58, 4-(4-chlorophenylsulfonyl)-N-isobutyl-3,4-dihydro-2H-benzo[b][1,4]oxazine-6-carboxamide] | +A | +D | +B | – | – | –
13 | CC(C)CNC(=O)c1ccc2c(c1)N(S(=O)(=O)c1ccc(F)cc1)CCO2 [Example 60, 4-(4-fluorophenylsulfonyl)-N-isobutyl-3,4-dihydro-2H-benzo[b][1,4] oxazine-6-carboxamide] | +B | +D | +B | – | – | –
14 | O=C(NC1CCCC1)c1ccc2c(c1)N(S(=O)(=O)c1ccccc1)CCO2 [Example 61, N-cyclopentyl-4-(phenylsulfonyl)-3,4-dihydro-2H-benzo[b][1,4]oxazine-6-carboxamide] | +C | +E | +C | – | – | –
15 | O=C(NC1CCCC1)c1ccc2c(c1)N(S(=O)(=O)c1ccc(F)cc1)CCO2 [Example 62, N-cyclopentyl-4-(4-fluorophenylsulfonyl)-3,4-dihydro-2H-benzo[b][1,4]oxazine-6-carboxamide] | +A | +D | +B | – | – | –
16 | O=C(NC1CCCC1)c1ccc2c(c1)N(S(=O)(=O)c1ccc(Cl)cc1)CCO2 [Example 63, 4-(4-chlorophenylsulfonyl)-N-cyclopentyl-3,4-dihydro-2H-benzo[b][1,4]oxazine-6-carboxamide] | +A | +D | +B | – | – | –
17 | O=C(c1ccc2c(c1)N(S(=O)(=O)c1ccc(F)cc1)CCS2)N1CCCC1 [Example 71] | +C | +E | +C | – | – | –
18 | CCN(CC)C(=O)c1ccc2c(c1)N(S(=O)(=O)c1ccc(C(F)(F)F)cc1)CCS2 [Example 73, N,N-diethyl-4-(4-(trifluoromethyl)phenylsulfonyl)-3,4-dihydro-2H-benzo[b][1,4]thiazine-6-carboxamide] | +C | +E | +C | – | – | –
19 | O=C(c1ccc2c(c1)N(S(=O)(=O)c1ccc(F)cc1)CCS2)N1CCCCC1 [Example 77] | +C | +E | +C | – | – | –
20 | CC(C)(C)c1noc(-c2ccc3c(c2)N(S(=O)(=O)c2ccc(C(F)(F)F)cc2)CCS3)n1 [Example 82, 3-tert-butyl-5-(4-(4-(trifluoromethyl)phenylsulfonyl)-3,4-dihydro-2H-benzo[b][1,4]thiazin-6-yl)-1,2,4-oxadiazole] | +B | +D | +B | – | – | –
21 | O=S(=O)(c1ccc(F)cc1)N1CCSc2ccc(-c3nc(-c4ccccn4)no3)cc21 [Example 83, 5-(4-(4-fluorophenylsulfonyl)-3,4-dihydro-2H-benzo[b][1,4]thiazin-6-yl)-3-(pyridin-2-yl)-1,2,4-oxadiazole] | +B | +D | +C | – | – | –
22 | CC(C)(C)c1noc(-c2ccc3c(c2)N(S(=O)(=O)c2ccccc2)CCS3)n1 [Example 84] | +A | +E | +C | – | – | –
23 | CC(C)(C)c1noc(-c2ccc3c(c2)N(S(=O)(=O)c2ccc(F)cc2)CCS3)n1 [Example 85, 3-tert-butyl-5-(4-(4-fluorophenylsulfonyl)-3,4-dihydro-2H-benzo[b][1,4]thiazin-6-yl)-1,2,4-oxadiazole] | +B | +D | +B | – | – | –
24 | O=S(=O)(c1ccccc1)N1CCSc2ccc(-c3nc(-c4ccccn4)no3)cc21 [Example 87, 5-(4-(phenylsulfonyl)-3,4-dihydro-2H-benzo[b][1,4]thiazin-6-yl)-3-(pyridin-2-yl)-1,2,4-oxadiazole] | – | – | – | > 10 | > 10 | > 10
25 | CCc1noc(-c2ccc3c(c2)N(S(=O)(=O)c2ccc(C(F)(F)F)cc2)CCS3)n1 [Example 89, 3-ethyl-5-(4-(4-(trifluoromethyl)phenylsulfonyl)-3,4-dihydro-2H-benzo[b][1,4]thiazin-6-yl)-1,2,4-oxadiazole] | +A | +D | +B | – | – | –
26 | CCc1noc(-c2ccc3c(c2)N(S(=O)(=O)c2ccc(F)cc2)CCS3)n1 [Example 90, 3-ethyl-5-(4-(4-fluorophenylsulfonyl)-3,4-dihydro-2H-benzo[b][1,4]thiazin-6-yl)-1,2,4-oxadiazole] | +A | +D | +B | – | – | –
27 | CC(C)(C)NC(=O)c1ccc2c(c1)N(S(=O)(=O)c1ccccc1)CCC(C)(C)S2 [Example 91, N-tert-butyl-2,2-dimethyl-5-(phenylsulfonyl)-2,3,4,5-tetrahydrobenzo[b][1,4]thiazepine-7-carboxamide] | +B | −E | +D | – | – | –
28 | C[C@H](NC(=O)c1ccc2c(c1)N(S(=O)(=O)c1ccccc1)CCC(C)(C)S2)C(C)(C)C [Example 98, (S)-N-(3,3-dimethyl-butan-2-yl)-2,2-dimethyl-5-(phenyl-sulfonyl)-2,3,4,5-tetrahydrobenzo[b][1,4] thiazepine-7-carboxamide] | −E | −D | +D | – | – | –
29 | CC1(C)CCN(S(=O)(=O)c2ccc(F)cc2)c2cc(C(=O)N3CCOCC3)ccc2S1 [Example 100, (5-(4-fluorophenyl-sulfonyl)-2,2-dimethyl-2,3,4,5-tetrahydro-benzo[b][1,4]thiazepin-7-yl) (morpholino)-methanone] | +C | −E | +E | – | – | –
